Converted amounts (≈) assume the structure as drawn.

In one assay the test system is Klebsiella pneumoniae. The experiment in a line: Antibacterial activity against Klebsiella pneumonia RCMB 010058 by broth dilution method. It is filed as functional. Background: Dilution methods test growth across graded concentrations, often in twofold steps.
Take `OCC(O)CSc1nnc(-c2nnn(-c3ccccc3Cl)c2-c2nnc(SCC(O)CO)o2)o1` (stereo unspecified): the MIC turned out to be 4 µg/mL (≈ 7.58 µM).

The test system of a further assay is Escherichia coli. Kind of assay: Antibacterial activity against Escherichia coli ATCC 25922 incubated for 24 hrs by tube dilution method. Format: functional.
In turn, `O=Cc1cn(-c2ccccc2)nc1-c1ccccc1OCc1cn(Cc2ccc(Br)cc2)nn1` came in with a minimum inhibitory concentration (MIC) of 5.5 µg/mL (≈ 10.7 µM).

Turning to `Cc1cc(C)cc(Cn2cc(COc3ccccc3-c3nn(-c4ccccc4)cc3C=O)nn2)c1`, inhibition of growth (MIC) required 5.5 µg/mL (≈ 11.9 µM).

As to `COc1ccc(Cn2cc(COc3ccccc3-c3nn(-c4ccccc4)cc3C=O)nn2)cc1`, the MIC came to 6.5 µg/mL (≈ 14 µM).

Take `O=Cc1cn(-c2ccccc2)nc1-c1ccccc1OCc1cn(Cc2ccccc2)nn1`: it took 5.5 µg/mL (≈ 12.6 µM) to inhibit growth (MIC).

In turn, `O=Cc1cn(-c2ccccc2)nc1-c1ccccc1OCc1cn(Cc2ccc(C(=O)O)cc2)nn1` registered a minimum inhibitory concentration (MIC) of 5.5 µg/mL (≈ 11.5 µM).

`Cc1ccc(OCc2cn(Cc3cccc(Cl)c3)nn2)c(-c2nn(-c3ccccc3)cc2C=O)c1` yielded an MIC of 5.5 µg/mL (≈ 11.4 µM).

`O=Cc1cn(-c2ccccc2)nc1-c1ccccc1OCc1cn(Cc2cccc(Cl)c2)nn1`: it took 5.5 µg/mL (≈ 11.7 µM) to inhibit growth (MIC).

Turning to `O=Cc1cn(-c2ccccc2)nc1-c1cc(Cl)ccc1OCc1cn(Cc2cccc(Cl)c2)nn1`, it took 5.5 µg/mL (≈ 10.9 µM) to inhibit growth (MIC).

In turn, `O=Cc1cn(-c2ccccc2)nc1-c1cc(Cl)ccc1OCc1cn(Cc2ccccc2)nn1` had an MIC of 5.5 µg/mL (≈ 11.7 µM).

As to `Cc1ccc(OCc2cn(Cc3ccccc3)nn2)c(-c2nn(-c3ccccc3)cc2C=O)c1`, it took 5.5 µg/mL (≈ 12.2 µM) to inhibit growth (MIC).

A further assay concerns Pseudomonas aeruginosa. Kind of assay: Antibacterial activity against Pseudomonas aeruginosa RCMB 010043 by broth dilution method. It is filed as functional.
As to `OCC(O)CSc1nnc(-c2nnn(-c3ccccc3Cl)c2-c2nnc(SCC(O)CO)o2)o1` (stereo unspecified), the lowest concentration to inhibit growth (MIC) was 4 µg/mL (≈ 7.58 µM).

A further assay concerns Pseudomonas aeruginosa. The experiment in a line: Antibacterial activity against Pseudomonas aeruginosa ATCC 12454 incubated for 24 hrs by tube dilution method. It is filed as functional.
In turn, `O=Cc1cn(-c2ccccc2)nc1-c1ccccc1OCc1cn(Cc2ccc(Br)cc2)nn1` returned an MIC of 5.5 µg/mL (≈ 10.7 µM).

On to `Cc1cc(C)cc(Cn2cc(COc3ccccc3-c3nn(-c4ccccc4)cc3C=O)nn2)c1`, for which the lowest concentration to inhibit growth (MIC) was 5.5 µg/mL (≈ 11.9 µM).

For the compound `COc1ccc(Cn2cc(COc3ccccc3-c3nn(-c4ccccc4)cc3C=O)nn2)cc1`, the MIC was found to be 6.5 µg/mL (≈ 14 µM).

As to `O=Cc1cn(-c2ccccc2)nc1-c1ccccc1OCc1cn(Cc2ccccc2)nn1`, the MIC amounted to 5.5 µg/mL (≈ 12.6 µM).

The compound `O=Cc1cn(-c2ccccc2)nc1-c1ccccc1OCc1cn(Cc2ccc(C(=O)O)cc2)nn1` gave a minimum inhibitory concentration (MIC) of 5.5 µg/mL (≈ 11.5 µM).

`Cc1ccc(OCc2cn(Cc3cccc(Cl)c3)nn2)c(-c2nn(-c3ccccc3)cc2C=O)c1` displayed a minimal inhibitory concentration (MIC) of 5.5 µg/mL (≈ 11.4 µM).

`O=Cc1cn(-c2ccccc2)nc1-c1ccccc1OCc1cn(Cc2cccc(Cl)c2)nn1` had an MIC of 5.5 µg/mL (≈ 11.7 µM).

`O=Cc1cn(-c2ccccc2)nc1-c1cc(Cl)ccc1OCc1cn(Cc2cccc(Cl)c2)nn1` gave an MIC of 5.5 µg/mL (≈ 10.9 µM).

The compound `O=Cc1cn(-c2ccccc2)nc1-c1cc(Cl)ccc1OCc1cn(Cc2ccccc2)nn1` gave a minimum inhibitory concentration (MIC) of 5.5 µg/mL (≈ 11.7 µM).

Consider `Cc1ccc(OCc2cn(Cc3ccccc3)nn2)c(-c2nn(-c3ccccc3)cc2C=O)c1`, for which the MIC was determined as 5.5 µg/mL (≈ 12.2 µM).

For another assay, the system named is Escherichia coli. Kind of assay: Antibacterial activity against Escherichia coli RCMB 010052 by broth dilution method. Format: functional.
The compound `OCC(O)CSc1nnc(-c2nnn(-c3ccccc3Cl)c2-c2nnc(SCC(O)CO)o2)o1` (stereo unspecified) gave a minimum inhibitory concentration (MIC) of 4 µg/mL (≈ 7.58 µM).

The subject of the next assay is Streptococcus pyogenes. The experiment in a line: Antibacterial activity against Streptococcus pyogenes ATCC 35552 incubated for 24 hrs by tube dilution method. Format: functional.
For `O=Cc1cn(-c2ccccc2)nc1-c1ccccc1OCc1cn(Cc2ccc(Br)cc2)nn1`, the MIC stood at 5.5 µg/mL (≈ 10.7 µM).

`Cc1cc(C)cc(Cn2cc(COc3ccccc3-c3nn(-c4ccccc4)cc3C=O)nn2)c1` displayed an MIC of 5.5 µg/mL (≈ 11.9 µM).

`COc1ccc(Cn2cc(COc3ccccc3-c3nn(-c4ccccc4)cc3C=O)nn2)cc1` came in with a minimum inhibitory concentration (MIC) of 6.5 µg/mL (≈ 14 µM).

With `O=Cc1cn(-c2ccccc2)nc1-c1ccccc1OCc1cn(Cc2ccccc2)nn1`, the MIC turned out to be 5.5 µg/mL (≈ 12.6 µM). This MIC and that of the compound before are within 1.5-fold of each other.

With `O=Cc1cn(-c2ccccc2)nc1-c1ccccc1OCc1cn(Cc2ccc(C(=O)O)cc2)nn1`, the MIC amounted to 5.5 µg/mL (≈ 11.5 µM).

With `Cc1ccc(OCc2cn(Cc3cccc(Cl)c3)nn2)c(-c2nn(-c3ccccc3)cc2C=O)c1`, 5.5 µg/mL (≈ 11.4 µM) was the least that counted as inhibitory (MIC).

Consider `O=Cc1cn(-c2ccccc2)nc1-c1ccccc1OCc1cn(Cc2cccc(Cl)c2)nn1`, for which 5.5 µg/mL (≈ 11.7 µM) was the least that counted as inhibitory (MIC).

As for `O=Cc1cn(-c2ccccc2)nc1-c1cc(Cl)ccc1OCc1cn(Cc2cccc(Cl)c2)nn1`, the MIC turned out to be 5.5 µg/mL (≈ 10.9 µM).

In turn, `O=Cc1cn(-c2ccccc2)nc1-c1cc(Cl)ccc1OCc1cn(Cc2ccccc2)nn1` registered an MIC of 5.5 µg/mL (≈ 11.7 µM).

Take `Cc1ccc(OCc2cn(Cc3ccccc3)nn2)c(-c2nn(-c3ccccc3)cc2C=O)c1`: it took 5.5 µg/mL (≈ 12.2 µM) to inhibit growth (MIC).

Another assay deals with Streptococcus pneumoniae. The experiment in a line: Antibacterial activity against Streptococcus pneumoniae RCMB 010010 by broth dilution method. It is filed as functional.
In the case of `OCC(O)CSc1nnc(-c2nnn(-c3ccccc3Cl)c2-c2nnc(SCC(O)CO)o2)o1` (stereo unspecified), the MIC stood at 4 µg/mL (≈ 7.58 µM).

The test system of the next assay is Staphylococcus aureus. Kind of assay: Antibacterial activity against Staphylococcus aureus RCMB 010025 by broth dilution method. It is filed as functional.
For the compound `OCC(O)CSc1nnc(-c2nnn(-c3ccccc3Cl)c2-c2nnc(SCC(O)CO)o2)o1` (stereo unspecified), the MIC was 4 µg/mL (≈ 7.58 µM).

In the next assay the test system is Bacillus subtilis. The experiment in a line: Antibacterial activity against Bacillus subtilis RCMB 010067 by broth dilution method. Format: functional.
Compound `OCC(O)CSc1nnc(-c2nnn(-c3ccccc3Cl)c2-c2nnc(SCC(O)CO)o2)o1` (stereo unspecified) showed a minimal inhibitory concentration (MIC) of 4 µg/mL (≈ 7.58 µM).

The subject of the next assay is Klebsiella pneumoniae. Kind of assay: Antibacterial activity against Klebsiella pneumoniae ATCC 15380 incubated for 24 hrs by tube dilution method. It is filed as functional.
`O=Cc1cn(-c2ccccc2)nc1-c1ccccc1OCc1cn(Cc2ccc(Br)cc2)nn1` displayed an MIC of 5.5 µg/mL (≈ 10.7 µM).

Consider `Cc1cc(C)cc(Cn2cc(COc3ccccc3-c3nn(-c4ccccc4)cc3C=O)nn2)c1`, for which the minimum inhibitory concentration (MIC) is 5.5 µg/mL (≈ 11.9 µM).

With `COc1ccc(Cn2cc(COc3ccccc3-c3nn(-c4ccccc4)cc3C=O)nn2)cc1`, the minimum inhibitory concentration (MIC) was 6.5 µg/mL (≈ 14 µM).

On to `O=Cc1cn(-c2ccccc2)nc1-c1ccccc1OCc1cn(Cc2ccccc2)nn1`, for which the minimal inhibitory concentration (MIC) was determined as 5.5 µg/mL (≈ 12.6 µM). This MIC and that of the compound before are within 1.5-fold of each other.

Regarding `O=Cc1cn(-c2ccccc2)nc1-c1ccccc1OCc1cn(Cc2ccc(C(=O)O)cc2)nn1`, the minimal inhibitory concentration (MIC) was 5.5 µg/mL (≈ 11.5 µM).

`Cc1ccc(OCc2cn(Cc3cccc(Cl)c3)nn2)c(-c2nn(-c3ccccc3)cc2C=O)c1` gave a minimal inhibitory concentration (MIC) of 5.5 µg/mL (≈ 11.4 µM).

Turning to `O=Cc1cn(-c2ccccc2)nc1-c1ccccc1OCc1cn(Cc2cccc(Cl)c2)nn1`, inhibition of growth (MIC) required 5.5 µg/mL (≈ 11.7 µM).

`O=Cc1cn(-c2ccccc2)nc1-c1cc(Cl)ccc1OCc1cn(Cc2cccc(Cl)c2)nn1` registered an MIC of 5.5 µg/mL (≈ 10.9 µM).

Regarding `O=Cc1cn(-c2ccccc2)nc1-c1cc(Cl)ccc1OCc1cn(Cc2ccccc2)nn1`, the minimal inhibitory concentration (MIC) was found to be 5.5 µg/mL (≈ 11.7 µM).

Take `Cc1ccc(OCc2cn(Cc3ccccc3)nn2)c(-c2nn(-c3ccccc3)cc2C=O)c1`: it took 5.5 µg/mL (≈ 12.2 µM) to inhibit growth (MIC).

Another assay deals with Staphylococcus aureus. The experiment in a line: Antibacterial activity against Staphylococcus aureus ATCC 25923 incubated for 24 hrs by tube dilution method. It is filed as functional.
With `O=Cc1cn(-c2ccccc2)nc1-c1ccccc1OCc1cn(Cc2ccc(Br)cc2)nn1`, the minimal inhibitory concentration (MIC) was found to be 5.5 µg/mL (≈ 10.7 µM).

Compound `Cc1cc(C)cc(Cn2cc(COc3ccccc3-c3nn(-c4ccccc4)cc3C=O)nn2)c1` came in with an MIC of 5.5 µg/mL (≈ 11.9 µM).

`COc1ccc(Cn2cc(COc3ccccc3-c3nn(-c4ccccc4)cc3C=O)nn2)cc1` yielded a minimum inhibitory concentration (MIC) of 6.5 µg/mL (≈ 14 µM). The MIC values of the last two compounds are within 1.5-fold of each other.

As to `O=Cc1cn(-c2ccccc2)nc1-c1ccccc1OCc1cn(Cc2ccccc2)nn1`, the minimal inhibitory concentration (MIC) was 5.5 µg/mL (≈ 12.6 µM).

For the compound `O=Cc1cn(-c2ccccc2)nc1-c1ccccc1OCc1cn(Cc2ccc(C(=O)O)cc2)nn1`, the minimal inhibitory concentration (MIC) is 5.5 µg/mL (≈ 11.5 µM).

As for `Cc1ccc(OCc2cn(Cc3cccc(Cl)c3)nn2)c(-c2nn(-c3ccccc3)cc2C=O)c1`, the MIC was 5.5 µg/mL (≈ 11.4 µM).

`O=Cc1cn(-c2ccccc2)nc1-c1ccccc1OCc1cn(Cc2cccc(Cl)c2)nn1` came in with an MIC of 5.5 µg/mL (≈ 11.7 µM).

As to `O=Cc1cn(-c2ccccc2)nc1-c1cc(Cl)ccc1OCc1cn(Cc2cccc(Cl)c2)nn1`, the MIC is 5.5 µg/mL (≈ 10.9 µM).

With `O=Cc1cn(-c2ccccc2)nc1-c1cc(Cl)ccc1OCc1cn(Cc2ccccc2)nn1`, the minimal inhibitory concentration (MIC) stood at 5.5 µg/mL (≈ 11.7 µM).

Turning to `Cc1ccc(OCc2cn(Cc3ccccc3)nn2)c(-c2nn(-c3ccccc3)cc2C=O)c1`, the MIC amounted to 5.5 µg/mL (≈ 12.2 µM).

Broadly, the MIC is the least concentration at which growth counts as inhibited.
